Results: article PMC5531494, “Target specificity, in vivo pharmacokinetics, and efficacy of the putative STAT3 inhibitor LY5 in osteosarcoma, Ewing's sarcoma, and rhabdomyosarcoma” (PLoS ONE, 2017)
pIC50: −log10 of the molar value. Where two headings read alike, the source gives them in different places.

Assays:
[1] = tested on: 96 human protein or lipid kinases; test: KINOMESCAN binding profile
Method: To determine the specificity of STAT blockade, we asked whether LY5 affected the phosphorylation of other family members including STAT1, STAT2, STAT4, and STAT6 [30–32]. […] To further define any potential off-target effects, we profiled the direct (steric) or indirect (allosteric) binding of LY5 to the binding sites of 96 human protein or lipid kinases (KINOMESCAN, www.kinomescan.com).
Supplementary file pone.0181885.s001.pdf: S1 Fig Kinomescan results for LY5. […] At 5 μM LY5 (B), only interaction with PLK3 was identified, mapped S-score (35) = 0.01. (PDF) Click here for additional data file.

[2] = tested on: human rhabdomyosarcoma cell lines RD, JR-1, and RH30; test: Alamar Blue cell viability assay, rhabdomyosarcoma panel; type: cell-based; details: range over RD, JR-1, RH30
Method: (§1) Sarcoma cell lines were seeded in 24-well plates in 1X RPMI medium containing 10% fetal bovine serum. Cells were then incubated with DMSO (control) or concentrations of LY5 ranging from 10 nM to 10 μM for 96 hrs. At the end of the incubation period, Alamar Blue (Invitrogen, Carlsbad, CA) was added to cells at one-tenth the volume of the cell culture medium and incubated for 3 hrs at 37° C in the dark. Fluorescence was then measured at an excitation/emissions wavelength of 570/590 nm and emission wavelength of 590 nm.
(§2) Fig 2 Biologic activity of LY5 in sarcoma cell lines. Dose response curves for LY5: RMS cell lines (RH30, RD, JR-1), ES cell lines (ES-3, ES-6, ES-7, ES-8), and an OS cell line (OS-17) were treated with LY5 (concentrations ranging from 10 nM to 10 μM) for 96 hours. Cell viability was determined using Alamar Blue staining. IC50 values are indicated for each cell line. Analyses were performed in triplicate and data are plotted as means ± standard deviation.

[3] = Plasma PK profile in mice; type: in vivo; details: ICR, mouse; for AUC(0-inf): read-out: AUC inf-obs; for bioavailability: read-out: F (bioavailability)
Method: Single-dose toxicity studies in mice were performed to identify the maximum tolerated dose of LY5. Additionally, 30 ICR mice (Harlan Laboratories, Indianapolis, IN) were divided into 3 groups to be dosed with 5 mg/kg LY5 (2 mg/ml) by oral (PO), intraperitoneal (IP) or intravenous (IV) routes to establish oral bioavailability. Animals were euthanized and blood was collected at allocated time points (5, 10, 20, 30 and 60 minutes, 2, 4, 6, 8 and 24 hrs) after LY5 administration, plasma was separated by centrifugation and frozen immediately on dry ice. Samples were stored at -80° C prior to analysis.
(§3) The liquid chromatography-mass spectrometry system utilized for these analyses consisted of a Dionex Ultimate 3000 RSLCnano High Performance Liquid Chromatography system and a Thermo Finnigan Quantum Ultras EMR mass spectrometer with an electrospray ionization source. Positive ionization mode was used for both LY5 and the internal standard, hesperetin. Plasma samples were collected and analyzed by the OSU James Comprehensive Cancer Center Pharmacoanalytical Shared Resource. Pharsight Phoenix WinNonlin software using non-compartmental analysis was used to generate PK parameters including maximum plasma concentration (Cmax), amount of time that drug is present at Cmax (Tmax), and total area under the curve (AUC). AUC all and AUC last were calculated by linear trapezoidal method of concentration-time curve up to the last measured point. AUC inf-obs was calculated by log-linear extrapolation of the terminal phase beyond the last collection time. Bioavailability (F) was calculated for IP and PO administration routes. Plasma stability and liver microsomal stability of LY5 were also assessed through this shared resource.

[4] = tested on: OS-17-luc cells; test: Murine model of OS pulmonary metastasis, bioluminescent imaging; type: in vivo, mice; details: 20 mg/kg LY5 daily oral gavage for 30 days, vs vehicle
Method: The ability of LY5 to inhibit pulmonary metastases was evaluated using a murine model of OS pulmonary metastasis. 8-week-old C.B-17 scid -/- female mice (Envigo, Madison, WI) received IV inoculation with 10^6 OS-17-luc cells expressing a luciferase reporter gene. OS-17-luc cells were generated by infecting OS-17 wild type cells with lentivirus containing the firefly luciferase under a CMV promoter (Cellomics Technology, Hallethorpe, MD) and selected with 0.5 ug/mL puromycin (Thermo Fisher Scientific, Waltham, MA). Beginning 24 hrs after inoculation, mice received vehicle (n = 10) or 20 mg/kg LY5 once daily via oral gavage (n = 9, one mouse died within 24 hrs after cell inoculation). LY5 was prepared by diluting a 40 mg/mL solution/slurry with a 50% propylene glycol/1% Tween 20 in water vehicle immediately before administration. Mice were treated with LY5 for 30 days, and bioluminescent imaging (after IP luciferin administration) was performed to determine pulmonary metastatic disease load. To investigate the pharmacodynamics (PD) effects of LY5, pSTAT3 (p-Tyr705, ab76315, Abcam) and total STAT3 (ab119352, Abcam) were evaluated in pulmonary metastatic lesions using IHC in lung samples from mice euthanized 24 hrs after their last dose.
(A-B) IHC staining of lung metastasis from mice treated with LY5. The metastatic tumor sections were stained with pSTAT3 or hematoxylin and eosin. […]

[5] = Liver microsomal stability; type: in vitro ADME, canine; details: compared to mice; data not shown
From the text: as §3

[6] = tested on: OS-17 cells; test: Alamar Blue cell viability assay; type: cell-based; details: Homo sapiens; OS-17, 96 hours
Method: as §1, §2

[7] = tested on: ES-3 cells; test: Alamar Blue cell viability assay; type: cell-based; details: Homo sapiens; ES-3, 96 hours
Method: as §1, §2

[8] = tested on: JR-1 cells; test: Alamar Blue cell viability assay; type: cell-based; details: Homo sapiens; JR-1, 96 hours
Method: as §1, §2

[9] = tested on: RD cells; test: Alamar Blue cell viability assay; type: cell-based; details: Homo sapiens, 96 hours
Method: as §1, §2

[10] = tested on: ES-6 cells; test: Alamar Blue cell viability assay; type: cell-based; details: Homo sapiens; ES-6, 96 hours
Method: as §1, §2

[11] = tested on: ES-7 cells; test: Alamar Blue cell viability assay; type: cell-based; details: Homo sapiens, ES7; ES-7, 96 hours
Method: as §1, §2

[12] = tested on: RH30 cells; test: Alamar Blue cell viability assay; type: cell-based; details: Homo sapiens; RH30, 96 hours
Method: as §1, §2

[13] = tested on: ES-8 cells; test: Alamar Blue cell viability assay; type: cell-based; details: Homo sapiens, ES8; ES-8, 96 hours
Method: as §1, §2

Structure (SMILES): NS(=O)(=O)c1cccc2c1C(=O)C=C(Nc1cccnc1)C2=O [LY5, 5,8-dioxo-6-(pyridin-3-ylamino)-5,8-dihydronaphthalene-1-sulfonamide]
- binding to any of 96 kinases ([1]; 1 μM LY5): no binding
- mapped S-score (35) ([1]; 1 μM LY5): 0
- mapped S-score (35) ([1]; 5 μM LY5): 0.01
- pIC50 [2]: 6.40 to 6.70
- AUC ([3]; 5 mg/kg IP): 0.717 µM·h
- Cmax ([3]; 5 mg/kg IP): 545 nM
- Tmax ([3]; 5 mg/kg IP): 4.98 min
- AUC(0-inf) ([3]; 5 mg/kg IP): 0.794 µM·h
- bioavailability ([3]; 5 mg/kg IP): 69.5%
- AUC ([3]; 5 mg/kg IV): 1.14 µM·h
- Cmax ([3]; 5 mg/kg IV): 1660 nM
- Tmax ([3]; 5 mg/kg IV): 4.98 min
- AUC(0-inf) ([3]; 5 mg/kg IV): 1.14 µM·h
- AUC ([3]; 5 mg/kg PO): 0.784 µM·h
- Cmax ([3]; 5 mg/kg PO): 509 nM
- Tmax ([3]; 5 mg/kg PO): 30 min
- AUC(0-inf) ([3]; 5 mg/kg PO): 0.898 µM·h
- bioavailability ([3]; 5 mg/kg PO): 78.6%
- development of pulmonary metastatic lesions (luciferase expression) [4]: no difference
- stability when incubated with canine liver microsomes [5]: increased stability
- pIC50 [6]: 5.84
- pIC50 [7]: 5.47
- pIC50 [8]: 6.57
- pIC50 [9]: 6.69
- pIC50 [10]: 5.30
- pIC50 [11]: 5.67
- pIC50 [12]: 6.37
- pIC50 [13]: 5.70
